Data from patent US9962372B2, “Pharmaceutical composition for the treatment of mycosis” (priority 2015, dated 2018).
Where two headings read alike, the source gives them in different places.

Columns and labels:
[1] = test system: C. albicans ATCC® 10231; test: Broth dilution method: MIC and synergy; type: cell-based, Candida albicans; details: for MIC: RPMI-1640, 35° C., 48 h; for MIC in combination with benzydamine: in combination with benzydamine 0.125 mg/ml
Protocol: (§1) Candida strains stored at −80° C. were thawed and streaked on SDA plate and then a second subculture was performed. Then, Candida strains suspensions were prepared as follows.
(§2) 10 ml of saline were placed in a 50 ml falcon tube with 5 g of glass beads. Loopful of the cells of the colonies of the second subculture were transferred into the saline and suspended by rubbing the loop against the wet wall of the tube to dislodge the cells. The tube was then shacked for 3 minutes using a mechanical shaker.
(§3) The number of cells in the suspension was adjusted from 1.5×10^6 to 5.0×10^6 colony forming units (CFU)/ml using saline according to Mc Farland standard No. 0.5 standard and reading the optical density at 550 nm.
(§4) For counting, serially 1:10 dilutions were prepared using saline, to obtain 10^−4 and 10^−5 dilutions of the suspension. A sample of 100 μl of each dilution was spread plate and incubated at 37° C. for 48 h.
(§5) The methodology used for the broth dilution method was similar to that disclosed in “EUCAST Definitive Document EDef 7.1: method for the determination of broth dilution MICs of antifungal agents for fermentative yeasts” (Clin Microbiol Infect 2008; 14: 398-408).
(§6) Then, serial 1:2 dilutions were prepared in DMSO, to concentrations from 10.0 mg/ml to 0.078 mg/ml. These solutions were further diluted 1:100 in RPMI-1640 (GiBCO® by Life Technologies) containing 2% glucose, 3-(N-morpholino) propanesulfonic acid (MOPS, by SIGMA) without NaHCO3, to final concentration from 100 μg/ml to 0.78 μg/ml.
as §6, with “from 1.250” for “from 10.0”, “to 0.0196” for “to 0.078”, “from 12.50” for “from 100”, “to 0.196” for “to 0.78”
as §6, with “from 5.0” for “from 10.0”, “to 0.3125” for “to 0.078”, “from 50” for “from 100”, “to 3.125” for “to 0.78”
(§7) Benzydamine was dissolved in water to a concentration of 25 mg/ml. Then, serial 1:2 dilutions were prepared in water, to concentrations from 25 mg/ml to 3.125 mg/ml. 1 ml of each solution was added to 24 ml (1:25 dilution) of RPMI-1640 (GiBCO® by Life Technologies) containing 2% glucose, 3-(N-morpholino) propanesulfonic acid (MOPS, by SIGMA) without NaHCO3, to final concentration from 1 mg/ml to 0.125 mg/ml.
As positive control Amphotericin B from a stock solution of 1600 μg/ml was diluted in DMSO to solutions having concentrations from 200 μg/ml to 50 μg/ml. These solutions were diluted 1:100 in RPMI-1640 (GiBCO®, by Life Technology) containing 2% glucose, 3-(N-morpholino) propanesulfonic acid (MOPS, by SIGMA) without NaHCO3, to concentrations from 2 μg/ml to 0.5 μg/ml.
(§8) (B) For synergy studies, further solutions of econazole, miconazole, clotrimazole and fluconazole nitrate having concentrations from 100 μg/ml to 0.049 μg/ml were prepared in RPMI-1640 as disclosed in paragraph 1.3.1(A).
(§9) Also, further solutions of benzydamine having concentrations from 1 mg/ml to 0.25 mg/ml were prepared in RPMI-1640 as disclosed in paragraph 1.3.1(A). Moreover, the solution of benzydamine with a concentration of 1 mg/ml was further diluted 1:1.43 with RPMI-1640 to concentration of 0.7 mg/ml.
(§10) Microdilution plates containing wells with a nominal capacity of about 300 μL/well were used.
(§11) The Candida strains suspensions prepared as described in paragraph 1.1 were grown on Sabouraud's agar medium SDA (Oxoid). Colonies were diluted in phosphate-buffered saline (PBS) and suspensions were adjusted to approximately 1-5×10^5 CFU/ml using Mc Farland 0.5 standard and reading the optical density at 550 nm.

[2] = test system: C. albicans ATCC® MYA-574 fluconazole resistant; test: Broth dilution method: MIC and synergy; type: cell-based, Candida albicans; details: for MIC: Candida albicans, active ingredient alone, RPMI-1640, 35° C., 48 h
Protocol: as §1, §2, §3, §4, §5, §6, §7, §8, §9, §10, §11
(§12) (A) For the calculation of the MIC, microdilution plates containing in each well 100 μl of each solution of the active ingredients obtained as described in paragraph 1.3.1(A) were prepared. The wells were then inoculated with 100 μl of Candida strains suspensions obtained as disclosed above containing 1-5×10^5 CFU/ml.
(§13) In each well, the final inoculum density and the final concentration of the active ingredients was half of that used (i.e. the final inoculum density was 0.5-2.5×10^5 CFU/ml, the concentration of econazole and miconazole was from 50 μg/ml to 0.39 μg/ml, the concentration of clotrimazole was from 6.25 μg/ml to 0.098 μg/ml, the concentration of fluconazole was from 50 μg/ml to 3.125 μg/ml and the concentration of benzydamine was from 0.5 mg/ml to 0.0625 mg/ml).
(§14) The microdilution plates were incubated for 48 hours at 35° C.
(§15) (B) For synergy studies, microdilution plates containing in each well 50 μl of each solution of econazole and miconazole and 50 μl of each solution of benzydamine, obtained as disclosed in paragraph 1.3.1(B), were prepared. Then, the wells were inoculated with 100 μl of the 1-5×10^5 CFU/ml Candida suspensions. […]

[3] = test system: C. albicans ATCC® MYA-427; test: Broth dilution method: MIC and synergy; type: cell-based, Candida albicans; details: for MIC: Candida albicans, active ingredient alone, RPMI-1640, 35° C., 48 h; for MIC in combination with benzydamine: in combination with benzydamine 0.125 mg/ml
Protocol: as §1, §2, §3, §4, §5, §6, §7, §8, §9, §10, §11, §12, §13, §14, §15

[4] = test system: C. lusitaniae ATCC® 34449; test: Agar dilution method: MIC and synergy (FIC); type: cell-based, Candida lusitaniae; details: for MIC: Clavispora lusitaniae, ATCC34449, active ingredient alone, agar dilution, Sabouraud agar, 35° C., 48 h, complete inhibition of growth
Protocol: Candida strains stored at -80° C. were thawed and streaked on SDA plate and then a second subculture was performed. Then, Candida strains suspensions were prepared as follows. 10 ml of saline were placed in a 50 ml falcon tube with 5 g of glass beads. Loopful of the cells of the colonies of the second subculture were transferred into the saline and suspended by rubbing the loop against the wet wall of the tube to dislodge the cells. The tube was then shacked for 3 minutes using a mechanical shaker. The number of cells in the suspension was adjusted from 1.5×10^6 to 5.0×10^6 colony forming units (CFU)/ml using saline according to Mc Farland standard No. 0.5 standard and reading the optical density at 550 nm. For counting, serially 1:10 dilutions were prepared using saline, to obtain 10^-4 and 10^-5 dilutions of the suspension. A sample of 100 μl of each dilution was spread plate and incubated at 37° C. for 48 h. […] The methodology was similar to that disclosed by R. Moody et al., “In Vitro Activities of Miconazole, Miconazole Nitrate, and Ketoconazole Alone and Combined with Rifampin against Candida spp. and Torulopsis glabrata Recovered from Cancer Patients.”, Antimicrobial Agents and Chemotherapy: 1980, 17, 871-875. Standard Petri dishes (92 mm diameter×16 mm height) were used. After the agar was poured, plates were allowed to cool and then immediately used. […] All the Petri dishes were incubated at 35° C. for 48 h. (B) For synergy studies, the surface of each Petri dish prepared as described in paragraph 1.2.1(B) was inoculated with four spots (20 μl inoculum volume) of the Candida strains suspensions prepared as described in paragraph 1.1, and incubated at 35° C. for 48 hours. The lowest concentration of drug that produced a complete inhibition of growth for a certain Candida strain was regarded as the minimal inhibitory concentration (MIC) for said strain. […] The synergistic effect of the combinations comprising benzydamine and econazole nitrate was evaluated by calculating the fractional inhibitory concentration (FIC), in accordance with […]. et al. in Antimicrobial Agents and Chemotherapy, February 2010, p. 602-609. […] FIC[combination b+e]=[…]] is the fractional inhibitory concentration of benzydamine with respect to a specific Candida strain, calculated as the ratio between the MIC of benzydamine in the presence of a sub-MIC amount of econazole (MIC(b+e)) and the MIC of benzydamine alone (MIC(b)), as follows: FIC[e] is the fractional inhibitory concentration of econazole with respect to a specific Candida strain, calculated as the ratio between the MIC of econazole in the presence of a sub-MIC amount of benzydamine (MIC(e+b)) and the MIC of econazole alone (MIC(e)), as follows: […]

[5] = test system: C. tropicalis ATCC® 750; test: Broth dilution method: MIC and synergy (FIC); type: cell-based, Candida tropicalis; details: for MIC: RPMI-1640, 35° C., 48 h; for MIC in combination with benzydamine: in combination with benzydamine 0.175 mg/ml
Protocol: as §1, §2, §3, §4, §5, §6
as §6, with “from 1.250” for “from 10.0”, “to 0.0196” for “to 0.078”, “from 12.50” for “from 100”, “to 0.196” for “to 0.78”
as §6, with “from 5.0” for “from 10.0”, “to 0.3125” for “to 0.078”, “from 50” for “from 100”, “to 3.125” for “to 0.78”
as §7, §8, §9, §10, §11, §12

[6] = Candida albicans, ATCC10231, active ingredient alone, read-out: MIC
[7] = Candida tropicalis, ATCC750, active ingredient alone, read-out: MIC

Compound | MIC ([1]; active ingredient alone) [µg/mL] | MIC [2] [µg/mL] | MIC of benzydamine in combination with econazole ([2]; in combination with econazole) [µg/mL] | MIC of benzydamine in combination with miconazole ([2]; in combination with miconazole) [µg/mL] | MIC [3] [µg/mL] | MIC [4] [µg/mL] | FIC[b] (fractional inhibitory concentration of benzydamine) ([4]; MIC of benzydamine in presence of sub-MIC econazole / MIC of benzydamine alone) | MIC [1, 6] [µg/mL] | MIC [5, 7] [µg/mL] | MIC in combination with benzydamine [2] [µg/mL] | MIC in combination with benzydamine [3] [µg/mL] | FIC[e] (fractional inhibitory concentration of econazole) ([4]; MIC of econazole in presence of sub-MIC benzydamine / MIC of econazole alone) | MIC in combination with benzydamine [1] [µg/mL] | MIC in combination with benzydamine [5] [µg/mL] | MIC ([5]; active ingredient alone) [µg/mL]
C[C@@H]1[C@H](O)[C@@H](C)/C=C/C=C/C=C/C=C/C=C/C=C/C=C/[C@H](O[C@@H]2O[C@H](C)[C@@H](O)[C@H](N)[C@@H]2O)C[C@@H]2O[C@](O)(C[C@@H](O)C[C@@H](O)[C@H](O)CC[C@@H](O)C[C@@H](O)CC(=O)O[C@H]1C)C[C@H](O)[C@H]2C(=O)O [Amphotericin B] | 0.5 |  |  |  |  |  |  |  |  |  |  |  |  |  | 
CN(C)CCCOc1nn(Cc2ccccc2)c2ccccc12 [Benzydamine] |  | 500 | 125 | 62.5 | 500 | 500 | 0.25 | 500 | 500 |  |  |  |  |  | 
Clc1ccc(COC(Cn2ccnc2)c2ccc(Cl)cc2Cl)cc1 (stereo not drawn) [Econazole nitrate] |  | 25 |  |  | 25 | 1.56 |  | 25 | 12.5 | 12.5 | 1.56 | 0.0628 | 3.125 | 1.56 | 
Clc1ccc(COC(Cn2ccnc2)c2ccc(Cl)cc2Cl)c(Cl)c1 (stereo not drawn) [Miconazole nitrate] |  | 50 |  |  | 25 |  |  | 6.25 | 6.25 | 12.5 | 0.78 |  | 1.56 | 0.78 | 
Clotrimazole nitrate | 0.025 |  |  |  |  |  |  |  |  |  |  |  |  | 0.098 | 6.25
Fluconazole nitrate | 3.125 |  |  |  |  |  |  |  |  |  |  |  |  | 6.25 | 50
